From patent US20120095036A1, “NOVEL SUBSTITUTED INDAZOLE AND AZA-INDAZOLE DERIVATIVES AS GAMMA SECRETASE MODULATORS” (priority 2009, published 2012)

Assays:
Aβ42 = assay: In vivo efficacy: Aβ42 lowering in brain (ELISA); design: species or system mouse; conditions: brain soluble fraction; typical protocol: single oral dose, overnight fasted animals, after four hours
Text: To determine whether acute administration of an Aβ42 lowering agent would reduce Aβ42 levels in vivo, non-transgenic rodents, e.g. mice or rats were used. Alternatively, two to three month old Tg2576 mice expressing APP695 containing the “Swedish” variant can be used or a transgenic mouse model developed by Dr. Fred Van Leuven (K.U.Leuven, Belgium) and co-workers, with neuron-specific expression of a clinical mutant of the human amyloid precursor protein [V717I] (Moechars et al., 1999 J. Biol. Chem. 274, 6483). Young transgenic mice have high levels of Aβ in the brain but no detectable Aβ deposition. At approximately 6-8 months of age, the transgenic mice start to display spontaneous, progressive accumulation of β-amyloid (A13) in the brain, eventually resulting in amyloid plaques within the subiculum, hippocampus and cortex. Animals treated with the Aβ42 lowering agent were examined and compared to those untreated or treated with vehicle and brain levels of soluble Aβ42 and total Aβ would be quantitated by standard techniques, for example, using ELISA. Treatment periods varied from hours to days and were adjusted based on the results of the Aβ42 lowering once a time course of onset of effect could be established.
A typical protocol for measuring Aβ42 lowering in vivo is shown but it is only one of many variations that could be used to optimize the levels of detectable Aβ. For example, Aβ42 lowering compounds were formulated in 20% of Captisol® (a sulfobutyl ether of β-cyclodextrin) in water or 20% hydroxypropyl β cyclodextrin. The Aβ42 lowering agents were administered as a single oral dose or by any acceptable route of administration to overnight fasted animals. After four hours, the animals were sacrificed and Aβ42 levels were analysed.
Blood was collected by decapitation and exsanguinations in EDTA-treated collection tubes. Blood was centrifuged at 1900 g for 10 minutes (min) at 4° C. and the plasma recovered and flash frozen for later analysis. The brain was removed from the cranium and hindbrain. The cerebellum was removed and the left and right hemisphere were separated. The left hemisphere was stored at −18° C. for quantitative analysis of test compound levels. The right hemisphere was rinsed with phosphate-buffered saline (PBS) buffer and immediately frozen on dry ice and stored at −80° C. until homogenization for biochemical assays.
Mouse brains were resuspended in 10 volumes of 0.4% DEA (diethylamine)/50 mM NaCl pH 10 (for non-transgenic animals) or 0.1% 3-[(3-cholamidopropyl)-dimethyl-ammonio]-1-propanesulfonate (CHAPS) in tris buffered saline (TBS) (for transgenic animals) containing protease inhibitors (Roche-11873580001 or 04693159001) per gram of tissue, e.g. for 0.158 g brain, add 1.58 ml of 0.4% DEA. All samples were sonicated for 30 sec on ice at 20% power output (pulse mode). Homogenates were centrifuged at 221.300×g for 50 min. The resulting high speed supernatants were then transferred to fresh tubes and were optionally further purified before the next step. A portion of the supernatant was neutralized with 10% 0.5 M Tris-HCl and this was used to quantify Aβtotal.
The obtained supernatants were purified with Water Oasis HLB reverse phase columns (Waters Corp., Milford, Mass.) to remove non-specific immunoreactive material from the brain lysates prior subsequent Aβ detection. Using a vacuum manifold, all solutions were passed through the columns at a rate of approximately 1 ml/min, so the vacuum pressure was adjusted accordingly throughout the procedure. Columns were preconditioned with 1 ml of 100% MeOH, before equilibration with 1 ml of H2O, Non-neutralized brain lysates were loaded onto the columns. The loaded samples were then washed twice with the first wash performed with 1 ml of 5% MeOH, and the second wash with 1 ml of 30% MeOH. Finally, the Aβ was eluted from the columns and into 100×30 mm glass tubes, with a solution of 90% MeOH with 2% NH4OH. […]

| melting point | SMILES | Aβ42 (% Ctrl) _Mean (Aβ42) |
| --- | --- | --- |
|  | COc1cccc(-n2cc3cccc(Nc4ccc(-n5cnc(C)c5)c(OC)c4)c3n2)c1 [Compound 1, N-[3-methoxy-4-(4-methyl-1H-imidazol-1-yl)phenyl]-2-(3-methoxyphenyl)-2H-indazol-7-amine] | 94 % Ctrl |
| 184.4 °C | COc1cccc(-n2nc3c(Nc4ccc(-n5cnc(C)c5)c(OC)c4)cccc3c2C)c1 [Compound 2, N-[3-methoxy-4-(4-methyl-1H-imidazol-1-yl)phenyl]-2-(3-methoxyphenyl)-3-methyl-2H-indazol-7-amine] | 59 % Ctrl |
|  | COc1cc(Nc2cccc3cn(CC(F)(F)F)nc23)ccc1-c1cnc(C)o1 [Compound 6, N-[3-methoxy-4-(2-methyl-5-oxazolyl)phenyl]-2-(2,2,2-trifluoroethyl)-2H-indazol-7-amine] | 79 % Ctrl |
|  | COc1cc(Nc2cccc3cn(Cc4ccc(F)cc4)nc23)ccc1-n1cnc(C)c1 [Compound 15, 2-[(4-fluorophenyl)methyl]-N-[3-methoxy-4-(4-methyl-1H-imidazol-1-yl)phenyl]-2H-indazol-7-amine] | 69 % Ctrl |
| 152.2 °C | COc1cccc(-n2nc3c(Nc4ccc(-c5cnc(C)o5)cc4)cccc3c2C)c1 [Compound 29, 2-(3-methoxyphenyl)-3-methyl-N-[4-(2-methyl-5-oxazolyl)phenyl]-2H-indazol-7-amine] | 96 % Ctrl |
|  | COc1cc(Nc2cccc3cn(CC4CC4)nc23)ccc1-c1cnc(C)o1.Cl [Compound 38, 2-(cyclopropylmethyl)-N-[3-methoxy-4-(2-methyl-5-oxazolyl)phenyl]-2H-indazol-7-amine HCl] | 123 % Ctrl |
| 194.4 °C | COc1cccc(-n2nc3c(Nc4ccc(-c5cnc(C)o5)c(OC)c4)nccc3c2C)c1 [Compound 42, N-[3-methoxy-4-(2-methyl-5-oxazolyl)phenyl]-2-(3-methoxyphenyl)-3-methyl-2H-pyrazolo[3,4-c]pyridin-7-amine] | 104 % Ctrl |
